The test system of test [1] is Beta-haemolytic streptococci (n = 20) clinical isolates from otitis externa cases in dogs. Put plainly: MIC/MBC and checkerboard, canine otitis externa isolates. The test is classed as cell-based, beta-haemolytic Streptococcus spp. The settings on record: for MIC50 / MIC90: Streptococcus; for MIC50, in combination of EDTA and ROB / MIC90, in combination of EDTA and ROB / MIC range, in combination of EDTA and ROB: concentration of the labelled component. The source says: Escherichia coli ATCC 25922, E. coli ATCC 11229, P. aeruginosa ATCC 27853, P. aeruginosa PA01, Pseudomonas putida ATCC 17428, P. mirabilis ATCC 43071, K. pneumoniae ATCC 13883, A. baumannii ATCC 19606, and A. baumannii ATCC 12457 were used for preliminary susceptibility testing and combination experiments. S. aureus ATCC 29213 and S. pneumoniae ATCC 49619 were used as internal quality controls. A variety of bacterial organisms from both human and canine infections were investigated in this study (n = 119 isolates in total). Twenty-eight clinical Acinetobacter spp. isolates were obtained from cases of human skin and soft tissue infections, including 18 Acinetobacter baumannii and 10 A. calcoaceticus, kindly provided by a person (Institute of Medical and Veterinary Science, South Australia). […] Ninety-one clinical isolates were obtained from cases of canine otitis externa, including seven methicillin-susceptible S. pseudintermedius (MSSP), 13 multidrug- and methicillin-resistant S. pseudintermedius (MRSP) ([Saputra et al., 2017]), 20 beta-haemolytic Streptococcus spp., 30 P. aeruginosa (10 of them resistant to gentamicin and 21 P. mirabilis isolates). These isolates were obtained from the bacterial collection of the national survey of antimicrobial resistance in animals conducted in Australia. Swab samples from dogs with signs of otitis externa were collected by veterinarians and submitted to government, private or university diagnostic laboratories throughout Australia. After routine bacterial identification and the removal of confidential information, the participating veterinary diagnostic laboratories submitted the bacteria and their clinical information to PC2 Laboratories, Australian Centre for Antimicrobial Resistance Ecology, School of Animal and Veterinary Sciences, University of Adelaide, Roseworthy Campus, Roseworthy, SA, Australia, for further study. Thus, animal ethics approval was not required in this study. These organisms were identified to species level using biochemical testing and MALDI-TOF mass spectrometry (Bruker, Preston, VIC, Australia).
The MIC for ampicillin or gentamicin against each isolate was determined for each test to serve as an internal quality control. The MICs of isolates were determined by visual reading and using an EnSpire Multimode Plate Reader 2300 atA600nm.
Briefly, 10 μl aliquots from each duplicate well from the MIC assays (starting from the MIC for each compound) were inoculated onto a sheep blood agar (SBA) plate and incubated at 37°C.
(§1) Briefly, antimicrobial stock solutions for robenidine and PMBN were prepared at a concentration of 12.8 mg/ml in DMSO. […] A 1 μl aliquot of the first compound from each combination was dispensed along the abscissa (from row A to G) of the 96-well microplate, while the second compound was dispensed along the ordinate (from column 12 to column 3) using an electronic multichannel pipette followed by 89 μl of LB broth. Each well of the plate was inoculated with an aliquot of 10 μl bacterial suspension at a concentration of 1-5 × 10^6 colony forming units (CFU) per ml. Subsequently, the plate was incubated at 37°C for 24 h. The fractional inhibitory concentration index (FICI) described the results of the combinations, and was calculated utilizing the following formula:
(§2) DRI = MIC of drug alone/MIC of drug in combination

Test [2] relates to preformed biofilms of two clinical isolates of S. pseudintermedius. The experiment in a line: Antibiofilm susceptibility (MBEC device) and biofilm checkerboard. Type of test: cell-based, Staphylococcus pseudintermedius. As to the method: Briefly, biofilms of P. aeruginosa PA01, two clinical isolates of P. aeruginosa isolates and two clinical isolates of S. pseudintermedius were formed by inoculating 150 μl of 10^7 CFU/ml of each bacterial suspension in the MBEC^TM device. The inoculated device was aerobically incubated on an orbital shaker at 37°C (OM11, Ratek Instruments Pty Ltd., Australia) for 24 h to produce equivalent (Uniform) biofilms on all pegs. […] Following antimicrobial challenge, the biofilms were rinsed twice with phosphate buffered saline (pH = 7) and disrupted via sonication (Soniclean, Model 160TD, Australia) for 10 min into the recovery medium. Viable cell counts were determined for recovered cells (colony-forming units per peg) after preparing a serial dilution and plating 10 μl in duplicates of each dilution onto plate count agar. Viable counts were then expressed as a percentage of the mean CFU of growth controls. MBEC was defined as the lowest concentration of antimicrobial agent that eradicates the biofilms recovered from the antimicrobial challenge.
Briefly, the MBEC^TM High-throughput assay system (MBEC^TM BioProducts, Innovotech, Canada) was used for the preparation of Gram-positive and Gram-negative biofilm producing bacteria as described above for antibiofilm susceptibility testing. […] Subsequently, the plate was incubated at 37°C for 24 h.

Test [3] relates to S. aureus ATCC 29213. Put plainly: MIC broth microdilution, quality control strain. The test is classed as cell-based. Particulars: Staphylococcus aureus, ATCC29213; S. aureus ATCC 29213, quality control strain. The method, then:
(§3) Luria Bertani (LB) broth (Oxoid, Australia) was applied for MIC testing in lieu of cation-adjusted Mueller–Hinton broth as robenidine has been previously shown to chelate calcium ions. Furthermore, a twofold serial dilution of robenidine was performed in 100% DMSO, with 1 μl dispensed to each well due to the hydrophobicity of the compound ([Abraham et al., 2016]). The MIC for ampicillin or gentamicin against each isolate was determined for each test to serve as an internal quality control. The MICs of isolates were determined by visual reading and using an EnSpire Multimode Plate Reader 2300 atA600nm.
(Broth dilution looks for growth in wells or tubes with falling amounts of substance.)

Test [4] deals with Acinetobacter spp. Put plainly: Checkerboard, summary for Acinetobacter spp. The test is classed as cell-based. Particulars: in the presence of EDTA and PMBN. As to the method: as §1, §2
The subject of test [5] is tested pathogens (canine otitis externa isolates). The experiment in a line: MIC, summary over canine otitis externa pathogens. Type of test: cell-based. The method, then:
as §3, with “Mueller-Hinton” for “Mueller–Hinton”, “atA600nm. […] Each well of the plate was inoculated with an aliquot of 10 μl bacterial suspension at a concentration of 1-5 × 10^6 colony forming units (CFU) per ml. Subsequently, the plate was incubated at 37°C for 24 h. The fractional inhibitory concentration index (FICI) described the results of the combinations, and was calculated utilizing the following formula: […]” for “atA600nm.”

The subject of test [6] is clinical MRSA. On the set-up: method as in Abraham et al., 2016; Ogunniyi et al., 2017. Particulars: ref Abraham et al., 2016, Ogunniyi et al., 2017; cited from earlier work.
Where [7] appears, read: canine otitis externa, read-out: MIC50, single drug.
Where [8] appears, read: canine otitis externa, read-out: MIC90, single drug.

One may read the MIC50 as an inhibitory concentration at the 50% level, which refers to growth in some studies and to a panel of isolates in others. The MIC90 is an inhibitory concentration at the 90% level, which refers to growth in some studies and to a panel of isolates in others. As a reminder, the MIC is the lowest concentration that inhibits growth of the organism. Read a low MIC as a more susceptible organism.

In brackets after ≈: the same amount, converted by molar mass. Like-named read-outs stand apart in the source and are kept apart here.

As for `O=C(O)CN(CCN(CC(=O)O)CC(=O)O)CC(=O)O` [EDTA, ethylenediaminetetraacetic acid], in test [1], the “MBC/MIC row, EDTA in combination” value is 750 µg/mL; the “MBC/MIC row, EDTA in combination (mM in parentheses)” value is 2 mM; the “MIC range, single drug (mM in parentheses)” value is 0.5 to 2 mM; the “MIC50, in combination of EDTA and ROB” value was 190 µg/mL. In test [1], the “MIC90, in combination of EDTA and ROB” value came out at 380 µg/mL; the “MIC range, in combination of EDTA and ROB” value lay within 95 to 380 µg/mL. In addition, in test [1] (EDTA component), the “MIC50, in combination of EDTA and ROB (mM in parentheses)” value is listed as 0.5 mM; the “MIC90, in combination of EDTA and ROB (mM in parentheses)” value is 1 mM; the “MIC range, in combination of EDTA and ROB (mM in parentheses)” value was in the range of 0.25 to 1 mM. For the same compound, the MIC50 in test [1] (setting [7]) was found to be 380 µg/mL. For the same compound, the MIC90 in test [1] (setting [8]) came to 750 µg/mL. Further, in test [1] (read-out: MIC50, single drug (mM in parentheses)), the MIC50 came out at 1 mM. Also, in test [1] (read-out: MIC90, single drug (mM in parentheses)), the MIC90 is 2 mM. Moreover, the “MIC range, single drug” value in test [1] (canine otitis externa) was in the range of 190 to 750 µg/mL. Besides, in test [2] (Gram-positive (S. pseudintermedius) biofilms, vs growth control), the “concentration with significant disruption of 24 h preformed biofilms” value came out at 1 mM.

Take `N=C(N/N=C/c1ccc(Cl)cc1)N/N=C/c1ccc(Cl)cc1` [ROB, robenidine]: in test [1], the “MBC/MIC, ROB in combination with EDTA” value worked out at 2; the “MIC50, in combination of EDTA and ROB” value turned out to be 2 µg/mL; the “MIC90, in combination of EDTA and ROB” value was 4 µg/mL; the “MIC range, in combination of EDTA and ROB” value lay within 1 to 8 µg/mL. Besides, in test [1] (setting [7]), the MIC50 stood at 8 µg/mL. For the same compound, the MIC90 in test [1] (setting [8]) worked out at 8 µg/mL. Besides, the “MIC range, single drug” value in test [1] (canine otitis externa) was 4 to 16 µg/mL. Further, in test [1] (footnote for BS not shown), the “MBC/MIC, single drug” value is reported as 1.75. This compound displayed an MIC in test [3] of 2 µg/mL (≈ 5.98 µM). The “fold reduction of robenidine MICs” value in test [4] is reported as 8- to 32 fold. The antibiofilm activity entry in test [2] (S. pseudintermedius biofilms, up to 128 μg/ml, 24 h) is reported as “did not show any antibiofilm activity”. Also, the MIC values in test [5] (Gram-positive bacteria: S. pseudintermedius and beta-haemolytic streptococci) lay within 1 to 16 µg/mL. The MIC90 of robenidine in test [5] (in the presence of EDTA, tested pathogens) was 0.5 to 4 µg/mL. Moreover, the “effective concentrations (MIC range)” value in test [6] is 1 to 2 µg/mL.

The record behind these values is paper PMC6494957 (Frontiers in Microbiology, 2019).
